Like-named read-outs stand apart in the source and are kept apart here.
What was measured:
[1] = Increase of the peripheral insulin action in diabetic mice; assay type: in vivo
Experimental: Diabetic mice were divided into a control group and a test group. A dose of 100 mg of brazilin per kg body weight was daily administered to the animals of the test group; instead of brazilin, the same amount of saline solution was injected intraperitoneally to the animals of the control group.
After 30 test days, the body weight of the animals of the test group was higher and the blood sugar values of these animals were lower as compared to the diabetic animals of the control group.
On the 30th test day, the animals were made to fast for 5 h; thereupon, they were injected intravenously with 0.46 mU/g of NPH insulin. Then, the blood sugar values were measured at respective intervals of 5 min.

[2] = system: thrombin stimulated platelets; assay: Malon dialdehyde (MDA) production by thrombin stimulated platelets; assay type: in vivo, rats
Source text: Thromboxane A2 is the potent substance inducing platelet aggregation. MDA is formed through the same enzyme system as thromboxane A2. Inhibition of MDA production may be due to the following factors:
If an inhibiting action on MDA is detectable but no significant influence on the prostacyclin production can be detected, a selective inhibiting action on thromboxane A2 may be inferred.
Rats were divided into four test groups, viz.
Group B: Normal rats (8 laboratory animals) to which an aqueous brazilin solution (comprising 110 mg of brazilin per kg body weight) was daily administered from the 20th to the 30th day
Group D: Diabetic rats (10 laboratory animals); for inducing diabetes, a dose of 70 mg of streptozotocin per kg body weight in 0.1M citrate buffer solution (pH 4.0) was administered intraperitoneally to normal rats on the 1st test day. From the 20th to the 30th day of the test aqueous brazilin solution (comprising 110 mg of brazilin per kg body weight) was daily administered orally to these diabetic rats. (Instead of an aqueous brazilin solution, the same amount of distilled water was administered to the laboratory animals of the groups A and C from the 20th to the 30th day.)
After expiration of the 30th test day, the test animals were sacrificed, and the MDA production was determined by means of thrombin stimulated platelets.

[3] = system: platelet aggregation in normal human plasma; assay: Platelet aggregation in normal human plasma induced by ADP; assay type: cell-based; details: for T/min, Aggregation (first value) / Tmax, Aggregation (first value): control 75.1; for activity at 1000 µM / inhibition at 1000 µM / activity at 100 µM / inhibition at 100 µM: Homo sapiens, Platelet; for activity at 1000 µM / activity at 100 µM: control 100
Experimental: The platelet aggregation was determined by a tubimetric method in a dual-channel aggregometer, assuming that a platelet-poor plasma represented 100% aggregation and that a platelet-rich plasma represented 0% aggregation. Each aggregometer tube was charged with 40 μl of platelet-rich plasma and 50 μl of test sample solution. The mixture was incubated at 37° C. for 2 min., whereupon 50 μl of ADP solution were added. Percent inhibition of the platelet aggregation caused by the test sample solution was calculated as follows: [formula]

[4] = Blood sugar lowering effect of brazilin in streptozotocin diabetic SD rats; assay type: in vivo
Experimental: By intraperitoneally administering streptozotocin (70 mg per 1 kg body weight in 0.1M of citrate buffer solution, pH 4.0) diabetes was induced in SD rats. 20 days after the injection of streptozotocin the blood sugar values of the laboratory animals were measured. The hyperglycemic rats were divided into two groups, viz. into a control group and a test group. For 10 days a dose of 110 mg of brazilin per kg body weight was daily administered to the animals of the test group. Then, the blood sugar values were measured again.

lysosomal glycosidases = assay: Normalizing effect on lysosomal glycosidases (overall); assay type: in vivo; details: kidney, diabetic mice
Source text: Possibly, the lysosomal glycosidases active in the kidneys are involved in the micro-angiopathy accompanying diabetes mellitus. Therefore, the lysosomal glycosidase activities upon administration of brazilin and full extract were examined.
A number of mice was divided into three groups. Group I, which was used as control group, remained untreated. To the rest of the mice diabetes was induced by administering alloxan. Part of these diabetic mice remained untreated (diabetic control group II); to the rest of the diabetic mice a dose of 100 mg of brazilin per kg body weight was administered daily. After a test period of 10 and 30 days, respectively, kidney tissue was taken from the laboratory animals and the enzyme fraction was determined. In particular, incubation was carried out for 30 min at 37° C., the reaction was stopped by adding 0.05M glycine-NaOH buffer solution (pH 10.4), centrifugation was carried out at 3000 U/min for 10 min, and the amount of p-nitrophenol formed per min and per mg of protein was determined spectrophotometrically at 410 nm at the supernatant.

plasmalipid = details: spontaneously hypertensive rats; Fette-Seifen-Anstrichmittel 87, 74-76 (1985); cited from earlier work
[5] = system: fat pads isolated from rats; assay: Lipogenesis: esterified lipids and free fatty acids in fat pads isolated from rats; assay type: in vivo
Experimental: (§1) With (a) untreated (normal) control animals (rats), (b) diabetic rats, and (c) diabetic brazilin treated rats glucose oxidation and lipogenesis were investigated (by means of the esterified lipids and the free fatty acids). Diabetes was induced by intravenous administration of streptozotocin (40 mg/kg live weight). Brazilin was administered intraperitoneally for 15 days (100 mg/kg body weight). Within the same period the same volume of saline solution was administered to the untreated animals of the control group.
The effects of additional brazilin administration on lipogenesis were determined by means of the esterified lipids and free fatty acids formed from 1-^14 C-glucose. The measurements were carried out according to established methods.

[6] = Comparison of synthetic substances with full extract; details: synthetically prepared substance
[7] = system: fat pads isolated from rats; assay: Glucose oxidation: formation of 14CO2 in fat pads isolated from rats; assay type: in vivo
Source text: Insulin-dependent diabetes mellitus is frequently accompanied by insulin resistance. Frequently an impaired insulin action is also observed with streptozotocin induced diabetic rats. Such an insulin resistance is particularly also attributed to postreceptor defects.
as §1
For determining the effects of brazilin administration on the glucose oxidation, the method described by Winegard et al. (J. Biol. Chem. 233, 267 (1958)) was used, using ^14 C glucose (1-^14 C-glucose).

[8] = diabetic mice, 100 mg/kg daily, 30 days
[9] = diabetic rats + brazilin, insulin 25 ng/ml

SMILES: Oc1ccc2c(c1)OC[C@]1(O)Cc3cc(O)c(O)cc3[C@H]21 [brazilin]
- blood sugar after i.v. NPH insulin ([1]; brazilin treated diabetic mice, 0.46 mU/g NPH insulin, day 30, 5 h fasted (FIG. 5)): marked decrease of the blood sugar values
- blood sugar values vs. diabetic control [1, 8]: lower
- body weight vs. diabetic control [1, 8]: higher
- MDA ([2]; Group B, thrombin 0,2 I. un., normal control 4.16): 0.58 ± 0.30 nmol/10 platelets
- MDA ([2]; Group B, thrombin 1,0 I. un., normal control 2.46): 1.02 ± 0.48 nmol/10 platelets
- MDA ([2]; Group D, thrombin 0,2 I. un., diabetic control 2.86): 0.76 ± 0.21 nmol/10 platelets
- MDA ([2]; Group D, thrombin 1,0 I. un., diabetic control 3.38): 1.10 ± 0.31 nmol/10 platelets
- MDA ([2]; normal rats + brazilin 110 mg/kg daily (Group B), thrombin 5,0 I. un., normal control 5.16): 2.20 ± 0.58 nmol/10 platelets
- inhibition of MDA production ([2]; rats, 110 mg/kg daily): inhibiting effect on MDA production
- T/min, Aggregation (first value) ([3]; 10^-3 M): 21.1%
- Tmax, Aggregation (first value) ([3]; 10^-3 M): 31.5%
- T/min, Aggregation (first value) ([3]; 10^-4 M): 34.8%
- Tmax, Aggregation (first value) ([3]; 10^-4 M): 60.7%
- activity at 1000 µM ([3]; 10^-3 M, read-out: T/min, Aggregation relative to control (second value)): 28.1%
- activity at 1000 µM ([3]; 10^-3 M, read-out: Tmax, Aggregation relative to control (second value)): 41.8%
- inhibition at 1000 µM ([3]; 10^-3 M, read-out: T/min, Inhibition): 71.9%
- inhibition at 1000 µM ([3]; 10^-3 M, read-out: Tmax, Inhibition): 58.2%
- activity at 100 µM ([3]; 10^-4 M, read-out: T/min, Aggregation relative to control (second value)): 46.4%
- activity at 100 µM ([3]; 10^-4 M, read-out: Tmax, Aggregation relative to control (second value)): 80.1%
- inhibition at 100 µM ([3]; 10^-4 M, read-out: T/min, Inhibition): 53.6%
- inhibition at 100 µM ([3]; 10^-4 M, read-out: Tmax, Inhibition): 19.9%
- Blood sugar ([4]; diabetic rats, 30 days after onset of diabetes, 110 mg/kg daily 10 days, before treatment (20 days) 266 ± 16.7, diabetic control 337 ± 45.6): 165 ± 42.7 mg/100 ml
- Blood sugar ([4]; normal rats, brazilin treated, 30 days, normal control 79 ± 22.2): 77 ± 20.3 mg/100 ml
- lowering of the blood sugar values ([4]; streptozotocin diabetic rats, 110 mg/kg daily): significant lowering of the blood sugar values
- effect on the lysosomal glycosidase activity (lysosomal glycosidases): normalizing effect
- plasmalipid-reducing effect (plasmalipid): plasmalipid-reducing effect
- effect on the production of free fatty acids ([5]; basal and insulin stimulated): In none of the two cases additional administration of brazilin has any significant effect
- restoration of initial production of esterified lipids, basal ([5]; diabetic rats + brazilin): 24.7%
- restoration of initial production of esterified lipids, insulin stimulated [5, 9]: 19.8%
- Glucose→FFA (free fatty acids), basal ([5]; diabetic rats + brazilin, n=6, not significant vs diabetic control, diabetic 2.60, normal 3.18): 1.83 ± 0.43 nmol/100 mg tissue/120 min
- Glucose→E.L. (esterified lipids), basal ([5]; diabetic rats + brazilin, n=10, P < 0.01 vs. diabetic control, diabetic 78.8, normal 220.8): 113.9 ± 9.5 nmol/100 mg tissue/120 min
- Glucose→FFA (free fatty acids), insulin stimulated ([5]; insulin 25 ng/ml, n=6, not significant vs diabetic control, diabetic 3.73, normal 8.42): 3.39 ± 0.76 nmol/100 mg tissue/120 min
- Glucose→E.L. (esterified lipids), insulin stimulated ([5]; insulin 25 ng/ml, n=9, P < 0.1 vs diabetic control, diabetic 276.5, normal 528.0): 326.2 ± 18.4 nmol/100 mg tissue/120 min
- effects compared with administration of major amounts of full extract [6]: substantially has the same effects
- restoration of initial CO2 production, basal ([7]; diabetic rats + brazilin): 74.6%
- Glucose→CO2, basal ([7]; diabetic rats + brazilin 100 mg/kg i.p. 15 days, n=8, P < 0.01 vs. diabetic control, diabetic 109.1, normal 172.8): 156.6 ± 14.7 nmol/100 mg tissue/120 min
- restoration of initial CO2 production, insulin stimulated [7, 9]: 14.5%
- Glucose→CO2, insulin stimulated ([7]; insulin 25 ng/ml, diabetic rats + brazilin, n=8, P < 0.1 vs diabetic control, diabetic 236.6, normal 694.2): 303.1 ± 19.0 nmol/100 mg tissue/120 min
